Data taken from patent publication US9518000B2, “Bicyclo [2.2.1] acid GPR120 modulators” (BRISTOL-MYERS SQUIBB COMPANY, priority 2013, dated 2016).

target: human GPR120 (Homo sapiens (Human), UniProt Q5NUL3); assay: GPR120 pERK AlphaScreen SureFire Assay (human GPR120 pERK assay); format: cell-based; details: CHOA12 or CHO-K1 cells stably transfected with the short form of human GPR120 receptor; phosphorylated ERK; read-out: EC50 values measured in the human GPR120 pERK assay
Excerpt: GPR120 activity was monitored by measuring phosphorylation of ERK (pERK), since G protein receptors are known to activate the ERK signaling cascade either directly and/or through recruitment of arrestin that serves as a scaffold for downstream signaling events.
GPR120 pERK AlphaScreen SureFire Assay
The human and mouse GPR120-mediated intracellular phosphorylated ERK assays were established using CHOA12 cells stably transfected with the short form of human or mouse GPR120 receptor. Cells were cultured in growth medium consisting of F-12 media (Invitrogen Cat. #11765) with 5% Charcoal/Dextran FBS (Invitrogen Cat. #12676-029), 500 μg/mL GENETICIN® (Life Technologies Cat. #10131-027) and 250 μg/mL Zeocin (Invitrogen Cat. #R250-01). Cells were cryo preserved at a concentration of 2×10^7 cells/mL, in 90% Charcoal/Dextran FBS and 10% DMSO, and frozen in liquid nitrogen at a low passage number.
For the pERK assay, 2×10^7 cells/mL cryopreserved human and mouse cells were thawed rapidly in a 37° C. water bath and added to a T-225 flask containing 50 mL growth medium. The flasks were placed in a tissue culture incubator overnight (37° C., 5% CO2). The next day, cells were harvested with trypsin (Gibco Cat. #25300-054), resuspended in serum-containing growth medium and counted using a Cellometer and volume adjusted to a concentration of 0.6×10^6 cells/mL. Cells were plated into 384-well clear bottom tissue culture plates (BD Cat. #353962) at 50 μL/well, for a density of 30,000 cells/well using a MULTIDROP® and incubated for 16-18 hours (overnight) at 37° C. with 5% CO2. The next day, cells were serum starved in 30 μL of F-12 media without any serum or antibiotics for 2 hours at 37° C.
Test compounds were 3-fold, 11-point serially diluted in DMSO in a REMP assay plate (Matrix Cat. #4307) by Tecan and 5 μL was transferred into an ECHO source plate (LabCyte Cat. #LC-0200). Cells were then stimulated with 50 nL of compound dilutions using ECHO liquid handler for 7 minutes at 37° C. Compounds ranged from final assay concentrations of 33.33 μM to 0.56 nM.
The media was then dumped and cells lysed with 20 μL of 1× Lysis buffer from the AlphaScreen SureFire Phospho-ERK 1/2 Kit (Perkin Elmer Cat. #6760617M). The lysis buffer was diluted 5-fold with water before use. The plate was agitated on a shaker for 10 minutes after which 2 μL was transferred into a 384-well white proxiplate (Perkin Elmer Cat. #6008289). The SureFire assay reagent mix was prepared by mixing 60 parts Reaction Buffer, 10 parts Activation Buffer, 1 part Donor Beads, 1 part Acceptor Beads (Perkin Elmer Cat. #TGRES10K). 3.5 μL/well of this reagent mix was manually added to the proxiplate with a multichannel pipettor. Plates were spun down at 1000 rpm for 2 minutes, followed by light-protected incubation at room temperature for 2 hours. The plates were read on the Alpha-technology compatible Envision multilabel plate reader using AlphaScreen protocol according to manufacturer's specifications. The agonist effect of compounds was expressed as 100×(average sample-average blank)/(average total−average blank) where sample is the luminescence activity in the presence of test compound, blank is equal to the luminescence activity in the presence of DMSO control and the total is signal induced by 50 μM linolenic acid as reference compound. Activation data for the test compound over a range of concentrations was plotted as percentage activation of the test compound (100%=maximum response). After correcting for background, EC50 values were determined. The EC50 is defined as the concentration of test compound which produces 50% of the maximal response and was quantified using the 4 parameter logistic equation to fit the data.
The human and mouse GPR120-mediated intracellular phosphorylated ERK assays were also established using CHO-K1 cells stably transfected with the short form of human or mouse GPR120 receptor. […]

Sequence of human GPR120 (Q5NUL3 whole entry): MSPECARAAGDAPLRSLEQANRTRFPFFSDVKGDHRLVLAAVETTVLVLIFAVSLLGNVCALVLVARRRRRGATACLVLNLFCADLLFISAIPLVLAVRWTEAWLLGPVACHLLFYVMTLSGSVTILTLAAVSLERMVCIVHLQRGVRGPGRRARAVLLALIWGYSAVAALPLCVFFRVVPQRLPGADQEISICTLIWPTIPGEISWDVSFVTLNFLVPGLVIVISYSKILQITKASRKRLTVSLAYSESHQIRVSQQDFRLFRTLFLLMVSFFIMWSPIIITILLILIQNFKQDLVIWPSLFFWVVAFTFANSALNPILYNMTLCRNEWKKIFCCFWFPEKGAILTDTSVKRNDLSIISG

Molecule | EC50 [µM]
3-(4-(1-(3-fluoro-5-(4- fluorophenoxy)phenyl)ethoxy) bicyclo[2.2.1]heptan-1-yloxy) propanoic acid [Example 82] | 0.98
3-(4-(2-phenoxybenzyloxy) bicyclo[2.2.1]heptan-1-yloxy) propanoic acid [Example 80] | 2.75
3-(4-(3-fluoro-5-(4- fluorophenoxy)benzyloxy) bicyclo[2.2.1]heptan-1-yloxy) propanoic acid [Example 81] | 0.35
4-(4-(2-(trifluoro- methoxy) benzoyloxy) bicyclo[2.2.1] heptan-1-yl) butanoic acid [Example 20] | 0.71
4-(4-(3-chloro-5- phenoxybenzyl- oxy)bicyclo [2.2.1]heptan- 1-yl)benzoic acid [Example 6] | 0.45
Cc1cc(COC23CCC(CCCC(=O)O)(CC2)C3)n(-c2ccc(Cl)cc2)n1 [Example 1, 4-(4-((1-(4-Chlorophenyl)-3-methyl-1H-pyrazol-5-yl)methoxy)bicyclo[2.2.1]heptan-1-yl) butanoic acid] | 1.56
COc1ccc(F)c(COC23CCC(CCCC(=O)O)(CC2)C3)c1 [Example 2, 4-(4-(2-fluoro-5-methoxybenzyl-oxy)bicyclo [2.2.1]heptan-1-yl)butanoic acid] | 1.82
CC1(C)Cc2cc(Cl)cc(COC34CCC(CCCC(=O)O)(CC3)C4)c2O1 [Example 3, 4-(4-((5-chloro-2,2-dimethyl-2,3-dihydro-benzofuran-7-yl)methoxy)bicyclo[2.2.1]heptan-1-yl) butanoic acid] | 0.53
O=C(O)CCCC12CCC(OCc3cc(Cl)cc(Cl)c3)(CC1)C2 [Example 4, 4-(4-(3,5-dichloro-benzyloxy)bicyclo[2.2.1]heptan-1-yl) butanoic acid] | 0.65
CC(C)Oc1ccc(Cl)cc1COC12CCC(CCCC(=O)O)(CC1)C2 [Example 5, 4-(4-(5-chloro-2-isopropoxy-benzyloxy)bicyclo[2.2.1]heptan-1-yl) butanoic acid] | 1.02

More lines, now with the values ahead:

EC50 [µM] | Molecule
0.28 | O=C(O)C1CC1CC12CCC(OCc3cc(F)cc(Oc4ccccc4)c3)(CC1)C2 (racemic) [Example 91, 2-((4-((3-Fluoro-5-phenoxybenzyl)oxy)bicyclo[2.2.1]heptan-1-yl)methyl)cyclopropanecarboxylic acid]
0.88 | O=C(O)[C@@H]1C[C@H]1CC12CCC(OCc3cc(F)cc(Oc4ccccc4)c3)(CC1)C2 (single isomer, unassigned) [Example 93]
0.38 | OCC(O)CCC12CCC(OCc3cc(F)cc(Oc4ccccc4)c3)(CC1)C2 (single isomer, unassigned) [Example 96, 4-(4-((3-Fluoro-5-phenoxybenzyl)oxy)bicyclo[2.2.1]heptan-1-yl)butane-1,2-diol]
2.48 | OCC(O)CCC12CCC(OCc3cc(F)cc(Oc4ccccc4)c3)(CC1)C2 (single isomer, unassigned) [Example 97, 4-(4-((3-Fluoro-5-phenoxybenzyl)oxy)bicyclo[2.2.1]heptan-1-yl)butane-1,2-diol]
0.23 | Cc1cc(COC23CCC(CCCC(=O)O)(CC2)C3)cc(OC(F)(F)F)c1 [Example 7, 4-(4-(3-methyl-5-(trifluorometh-oxy)benzyloxy)bicyclo[2.2.1]heptan-1-yl) butanoic acid]
2.34 | CC(OC12CCC(CCCC(=O)O)(CC1)C2)c1cccc(C(F)(F)F)c1 (stereo not drawn) [Example 8, 4-(4-(1-(3-(trifluoromethyl)phenyl)ethoxy)bicyclo[2.2.1]heptan-1-yl) butanoic acid]
0.6 | O=C(O)CCCC12CCC(OC3CCc4c(Cl)cc(Cl)cc43)(CC1)C2 (stereo not drawn) [Example 9, 4-(4-(4,6-dichloro-2,3-dihydro-1H-inden-1-yloxy)bicyclo[2.2.1]heptan-1-yl) butanoic acid]
2.64 | O=C(O)CCCC12CCC(OCc3ccccc3Cl)(CC1)C2 [Example 10, 4-(4-(2-chloro-benzyloxy)bicyclo[2.2.1]heptan-1-yl) butanoic acid]
